Experimental data as given in US11466016B2, “Pharmaceutical compounds” (priority 2018, dated 2022).
Where a name gives a salt, the structure may show the parent alone.

What follows are molecules tested against SHP2 (Homo sapiens (Human), UniProt Q06124) (assay: SHP2 Biochemical Assay (DiFMUP conversion, pIRS1 activating peptide)). Settings: not given.
SHP2, sequence (Q06124 whole entry): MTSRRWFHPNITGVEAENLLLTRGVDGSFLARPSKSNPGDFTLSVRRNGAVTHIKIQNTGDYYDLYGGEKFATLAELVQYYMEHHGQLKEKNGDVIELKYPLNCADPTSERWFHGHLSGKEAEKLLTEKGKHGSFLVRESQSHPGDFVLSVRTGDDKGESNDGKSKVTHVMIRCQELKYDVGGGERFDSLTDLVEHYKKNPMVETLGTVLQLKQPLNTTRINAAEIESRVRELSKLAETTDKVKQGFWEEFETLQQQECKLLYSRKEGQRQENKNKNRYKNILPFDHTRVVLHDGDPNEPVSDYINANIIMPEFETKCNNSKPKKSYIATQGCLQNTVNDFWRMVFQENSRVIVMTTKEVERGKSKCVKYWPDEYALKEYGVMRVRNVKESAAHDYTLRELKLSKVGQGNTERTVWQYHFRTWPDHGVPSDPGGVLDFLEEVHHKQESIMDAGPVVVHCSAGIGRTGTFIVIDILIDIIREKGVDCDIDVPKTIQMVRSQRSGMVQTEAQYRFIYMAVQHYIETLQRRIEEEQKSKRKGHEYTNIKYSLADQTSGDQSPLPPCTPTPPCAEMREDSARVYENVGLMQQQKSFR

| Structure (SMILES) | IC50 | SHP2 (percent at stated concentration) |
| --- | --- | --- |
| Cc1nc2ccc(-c3n[nH]c4nc(N5[C@@H]6CC[C@H]5C[C@@H](N)C6)c(CO)nc34)c(Cl)c2s1 [Example 128, {6-[endo-3-amino-8-azabicyclo[3.2.1]octan-8-yl]-3-(7-chloro-2-methyl-1,3-benzothiazol-6-yl)-1H-pyrazolo[3,4-b]pyrazin-5-yl}methanol] | 7.3 nM | – |
| Cc1nc2ccc(-c3n[nH]c4nc(N5[C@H]6CC[C@@H]5[C@@H](F)[C@@H](N)C6)c(CO)nc34)c(Cl)c2s1 [Example 98, {6-[(1R,2S,3S,5S)-3-amino-2-fluoro-8-azabicyclo[3.2.1]octan-8-yl]-3-(7-chloro-2-methyl-1,3-benzothiazol-6-yl)-1H-pyrazolo[3,4-b]pyrazin-5-yl}methanol] | 4 nM | – |
| Cn1cc2c(Cl)c(-c3n[nH]c4nc(N5[C@@H]6CC[C@H]5[C@@H](F)[C@@H](N)C6)c(CO)nc34)ccc2n1 [Example 81, {6-[(1S,2S,3S,5R)-3-amino-2-fluoro-8-azabicyclo[3.2.1]octan-8-yl]-3-(4-chloro-2-methyl-2H-indazol-5-yl)-1H-pyrazolo[3,4-b]pyrazin-5-yl}methanol] | 15 nM | – |
| COc1cnc2ccc(-c3c[nH]c4nc(N5[C@H]6CC[C@@H]5[C@@H](F)[C@@H](N)C6)cnc34)c(Cl)c2n1 [Example 106, (1R,2S,3S,5S)-8-[7-(5-chloro-3-methoxyquinoxalin-6-yl)-5H-pyrrolo[2,3-b]pyrazin-3-yl]-2-fluoro-8-azabicyclo[3.2.1]octan-3-amine, hydrochloride] | 22 nM | – |
| CN(C)c1cnc2ccc(-c3n[nH]c4nc(N5[C@@H]6CC[C@H]5[C@@H](F)[C@@H](N)C6)c(CO)nc34)c(Cl)c2n1 [Example 130, {6-[(1S,2S,3S,5R)-3-amino-2-fluoro-8-azabicyclo[3.2.1]octan-8-yl]-3-[5-chloro-3-(dimethylamino)quinoxalin-6-yl]-1H-pyrazolo[3,4-b]pyrazin-5-yl}methanol] | 9.5 nM | – |
| Cn1nc2ccc(-c3n[nH]c4nc(N5[C@@H]6CC[C@H]5C[C@@H](O)C6)c(CO)nc34)c(Cl)c2c1Cl [Example 115, endo-8-[3-(3,4-dichloro-2-methyl-2H-indazol-5-yl)-5-(hydroxymethyl)-1H-pyrazolo[3,4-b]pyrazin-6-yl]-8-azabicyclo[3.2.1]octan-3-ol] | – | 50%@0.30 uM |

Same assay, conditions: DiFMUP substrate, 0.25 μM pIRS1 peptide, 30 min pre-incubation; average where more than one data point; read-out: SHP2 (IC50)

| Structure (SMILES) | IC50 |
| --- | --- |
| Cn1cc2c(Cl)c(-c3c[nH]c4nc(N5CCC(N)(CO)CC5)cnc34)ccc2n1 [Example 7, {4-amino-1-[7-(4-chloro-2-methyl-2H-indazol-5-yl)-5H-pyrrolo[2,3-6]pyrazin-3-yl]piperidin-4-yl}methanol] | 23 nM |
| COc1cnc2ccc(-c3n[nH]c4nc(N5[C@@H]6CC[C@H]5C[C@@H](N)C6)c(CO)nc34)c(Cl)c2n1 [Example 113, {6-[endo-3-amino-8-azabicyclo[3.2.1]octan-8-yl]-3-(5-chloro-3-methoxyquinoxalin-6-yl)-1H-pyrazolo[3,4-b]pyrazin-5-yl}methanol] | 7.4 nM |
| Cn1cc2c(Cl)c(-c3c[nH]c4nc(N5CCC(C)(N)CC5)cnc34)ccc2n1 [Example 5, 1-[7-(4-chloro-2-methyl-2H-indazol-5-yl)-5H-pyrrolo[2,3-b]pyrazin-3-yl]-4-methylpiperidin-4-amine] | 18 nM |
| Cn1cc2c(Cl)c(-c3c[nH]c4nc(N5CCC6(CCN6)CC5)cnc34)ccc2n1 [Example 16, 7-[7-(4-chloro-2-methyl-2H-indazol-5-yl)-5H-pyrrolo[2,3-b]pyrazin-3-yl]-1,7-diazaspiro[3.5]nonane] | 24 nM |
| CN(C)C(=O)Cn1cc2c(Cl)c(-c3c[nH]c4nc(N5[C@@H]6CC[C@H]5C[C@@H](N)C6)cnc34)ccc2n1 [Example 49, 2-(5-{3-[endo-3-amino-8-azabicyclo[3.2.1]octan-8-yl]-5H-pyrrolo[2,3-b]pyrazin-7-yl}-4-chloro-2H-indazol-2-yl)-N,N-dimethylacetamide] | 15 nM |
| CN(C)c1cnc2ccc(-c3n[nH]c4nc(N5[C@@H]6CC[C@H]5C[C@@H](N)C6)c(CO)nc34)c(Cl)c2n1 [Example 133, {6-[endo-3-amino-8-azabicyclo[3.2.1]octan-8-yl]-3-[5-chloro-3-(dimethylamino)quinoxalin-6-yl]-1H-pyrazolo[3,4-b]pyrazin-5-yl}methanol] | 6 nM |
| Cn1cc2c(Cl)c(-c3c[nH]c4nc(N5[C@H]6CC[C@@H]5[C@@H](F)[C@@H](N)C6)cnc34)ccc2n1 [Example 64, (1R,2S,3S,5S)-8-[7-(4-chloro-2-methyl-2H-indazol-5-yl)-5H-pyrrolo[2,3-b]pyrazin-3-yl]-2-fluoro-8-azabicyclo[3.2.1]octan-3-amine] | 7.7 nM |
| Cc1nc2c(-c3ccc4nc(CO)sc4c3Cl)n[nH]c2nc1N1[C@H]2CC[C@@H]1[C@@H](F)[C@@H](N)C2 [Example 132, (6-{6-[(1R,2S,3S,5S)-3-amino-2-fluoro-8-azabicyclo[3.2.1]octan-8-yl]-5-methyl-1H-pyrazolo[3,4-b]pyrazin-3-yl}-7-chloro-1,3-benzothiazol-2-yl)methanol, hydrochloride] | 11 nM |
| Cc1cc(-c2c[nH]c3nc(N4[C@@H]5CC[C@H]4C[C@@H](N)C5)cnc23)c(Cl)c2cn(C)nc12 [Example 55, endo-8-[7-(4-chloro-2,7-dimethyl-2H-indazol-5-yl)-5H-pyrrolo[2,3-b]pyrazin-3-yl]-8-azabicyclo[3.2.1]octan-3-amine] | 22 nM |
| Cn1nc2ccc(-c3c[nH]c4nc(N5[C@@H]6CC[C@H]5C[C@@H](N)C6)cnc34)c(Cl)c2c1Cl [Example 24, endo-8-[7-(3,4-dichloro-2-methyl-2H-indazol-5-yl)-5H-pyrrolo[2,3-b]pyrazin-3-yl]-8-azabicyclo[3.2.1]octan-3-amine, methanesulfonic acid salt] | 4.3 nM |
| Cc1nc2c(-c3ccc4nn(C)cc4c3Cl)c[nH]c2nc1N1CCC(C)(CN)CC1 [Example 11, 1-{1-[7-(4-chloro-2-methyl-2H-indazol-5-yl)-2-methyl-5H-pyrrolo[2,3-b]pyrazin-3-yl]-4-methylpiperidin-4-yl]methanamine, dihydrochloride salt] | 43 nM |
| Cn1nc2ccc(-c3n[nH]c4nc(N5[C@H]6CC[C@@H]5[C@@H](F)[C@@H](N)C6)c(CO)nc34)c(Cl)c2c1C#N [Example 129, 5-{6-[(1R,2S,3S,5S)-3-amino-2-fluoro-8-azabicyclo[3.2.1]octan-8-yl]-5-(hydroxymethyl)-1H-pyrazolo[3,4-b]pyrazin-3-yl}-4-chloro-2-methyl-2H-indazole-3-carbonitrile] | 5 nM |
| CN(C)c1nc2ccc(-c3n[nH]c4nc(N5C6CCC5[C@@H](F)[C@@H](N)C6)c(CO)nc34)c(Cl)c2s1 (stereo in doubt) [Example 123, {6-[(1S,2S,3S,5R)-3-amino-2-fluoro-8-azabicyclo[3.2.1]octan-8-yl]-3-[7-chloro-2-(dimethylamino)-1,3-benzothiazol-6-yl]-1H-pyrazolo[3,4-b]pyrazin-5-yl}methanol] | 9.7 nM |
| Cn1nc2ccc(-c3n[nH]c4nc(N5[C@H]6CC[C@@H]5[C@@H](F)[C@@H](N)C6)c(CO)nc34)c(Cl)c2c1Cl [Example 80, {6-[(1R,2S,3S,5S)-3-amino-2-fluoro-8-azabicyclo[3.2.1]octan-8-yl]-3-(3,4-dichloro-2-methyl-2H-indazol-5-yl)-1H-pyrazolo[3,4-b]pyrazin-5-yl}methanol] | 5.2 nM |
| Cc1nc2c(-c3ccc4nn(C)cc4c3Cl)n[nH]c2nc1N1CCC2(CC1)CNC2 [Example 94, 7-[3-(4-Chloro-2-methyl-2H-indazol-5-yl)-5-methyl-1H-pyrazolo[3,4-b]pyrazin-6-yl]-2,7-diazaspiro[3.5]nonane] | 70 nM |
| CCn1cc2c(Cl)c(-c3c[nH]c4nc(N5[C@@H]6CC[C@H]5C[C@@H](N)C6)cnc34)ccc2n1 [Example 26, endo-8-[7-(4-chloro-2-ethyl-2H-indazol-5-yl)-5H-pyrrolo[2,3-b]pyrazin-3-yl]-8-azabicyclo[3.2.1]octan-3-amine, hydrochloride salt] | 14 nM |
| N[C@H]1C[C@H]2CC[C@@H](C1)N2c1cnc2c(-c3ccc4c(c3Cl)C(F)(F)C(=O)N4)c[nH]c2n1 [Example 66, 5-{3-[endo-3-amino-8-azabicyclo[3.2.1]octan-8-yl]-5H-pyrrolo[2,3-b]pyrazin-7-yl}-4-chloro-3,3-difluoro-2,3-dihydro-1H-indol-2-one, dihydrochloride salt] | 4.4 nM |
| Cn1nc2ccc(-c3c[nH]c4nc(N5[C@@H]6CC[C@H]5C[C@@H](N)C6)cnc34)c(Cl)c2c1CO [Example 37, (5-{3-[endo-3-amino-8-azabicyclo[3.2.1]octan-8-yl]-5H-pyrrolo[2,3-b]pyrazin-7-yl}-4-chloro-2-methyl-2H-indazol-3-yl)methanol, methanesulfonic acid salt] | 51 nM |
| CCn1cc2c(Cl)c(-c3n[nH]c4nc(N5[C@H]6CC[C@@H]5[C@@H](F)[C@@H](N)C6)c(C)nc34)ccc2n1 [Example 92, (1R,2S,3S,5S)-8-[3-(4-Chloro-2-ethyl-2H-indazol-5-yl)-5-methyl-1H-pyrazolo[3,4-b]pyrazin-6-yl]-2-fluoro-8-azabicyclo[3.2.1]octan-3-amine] | 8.3 nM |
| COCc1nc2ccc(-c3n[nH]c4nc(N5[C@H]6CC[C@@H]5[C@@H](F)[C@@H](N)C6)c(CO)nc34)c(Cl)c2s1 [Example 143, {6-[(1R,2S,3S,5S)-3-amino-2-fluoro-8-azabicyclo[3.2.1]octan-8-yl]-3-[7-chloro-2-(methoxymethyl)-1,3-benzothiazol-6-yl]-1H-pyrazolo[3,4-b]pyrazin-5-yl}methanol] | 6.1 nM |
| N[C@H]1C[C@H]2CC[C@@H](C1)N2c1cnc2c(-c3ccc4nc(CO)sc4c3Cl)c[nH]c2n1 [Example 44, (6-{3-[endo-3-amino-8-azabicyclo[3.2.1]octan-8-yl]-5H-pyrrolo[2,3-b]pyrazin-7-yl}-7-chloro-1,3-benzothiazol-2-yl)methanol, hydrochloride salt] | 6.8 nM |

Same assay, conditions: at 0.010 uM

| Structure (SMILES) | SHP2 (percent at stated concentration) |
| --- | --- |
| Cc1c2c(Cl)c(-c3n[nH]c4nc(N5[C@H]6CC[C@@H]5[C@@H](F)[C@@H](N)C6)c(CO)nc34)ccc2nn1C [Example 99, {6-[(1R,2S,3S,5S)-3-amino-2-fluoro-8-azabicyclo[3.2.1]octan-8-yl]-3-(4-chloro-2,3-dimethyl-2H-indazol-5-yl)-1H-pyrazolo[3,4-b]pyrazin-5-yl}methanol] | 45%@0.010 uM |
